This note sets out measurements from ChEMBL document CHEMBL2157895, “Selective Dual Inhibitors of the Cancer-Related Deubiquitylating Proteases USP7 and USP47” (ACS Med Chem Lett, 2012).

The source made the active and inactive calls. The calls are words filed in the database; no cut-off is given here.

The target in assay [1] is T1, Calpain-1 catalytic subunit (Homo sapiens) (UniProt P07384).
T1 sequence (whole entry): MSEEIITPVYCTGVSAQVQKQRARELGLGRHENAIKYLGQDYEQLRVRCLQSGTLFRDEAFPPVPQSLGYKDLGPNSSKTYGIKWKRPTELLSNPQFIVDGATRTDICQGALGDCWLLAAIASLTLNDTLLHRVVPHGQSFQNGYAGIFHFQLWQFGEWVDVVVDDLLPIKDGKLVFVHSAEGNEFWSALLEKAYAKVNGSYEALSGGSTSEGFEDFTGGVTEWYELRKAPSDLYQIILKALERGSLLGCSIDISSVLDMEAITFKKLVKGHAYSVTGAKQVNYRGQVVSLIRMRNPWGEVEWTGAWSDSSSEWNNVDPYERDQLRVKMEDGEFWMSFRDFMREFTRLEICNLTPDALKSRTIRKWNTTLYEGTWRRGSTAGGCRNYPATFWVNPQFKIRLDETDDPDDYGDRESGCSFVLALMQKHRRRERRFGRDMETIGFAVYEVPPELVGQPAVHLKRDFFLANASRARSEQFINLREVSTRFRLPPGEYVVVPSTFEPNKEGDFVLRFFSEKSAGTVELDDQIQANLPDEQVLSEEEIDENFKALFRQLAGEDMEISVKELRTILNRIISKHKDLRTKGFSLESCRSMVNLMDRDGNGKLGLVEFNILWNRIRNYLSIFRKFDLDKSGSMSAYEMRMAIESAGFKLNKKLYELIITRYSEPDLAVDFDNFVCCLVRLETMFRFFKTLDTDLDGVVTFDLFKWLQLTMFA
As to the kind of experiment: Inhibition of calpain1.

The target in assay [2] is T2, Ubiquitin carboxyl-terminal hydrolase 8 (Homo sapiens) (UniProt P40818).
T2 sequence (whole entry): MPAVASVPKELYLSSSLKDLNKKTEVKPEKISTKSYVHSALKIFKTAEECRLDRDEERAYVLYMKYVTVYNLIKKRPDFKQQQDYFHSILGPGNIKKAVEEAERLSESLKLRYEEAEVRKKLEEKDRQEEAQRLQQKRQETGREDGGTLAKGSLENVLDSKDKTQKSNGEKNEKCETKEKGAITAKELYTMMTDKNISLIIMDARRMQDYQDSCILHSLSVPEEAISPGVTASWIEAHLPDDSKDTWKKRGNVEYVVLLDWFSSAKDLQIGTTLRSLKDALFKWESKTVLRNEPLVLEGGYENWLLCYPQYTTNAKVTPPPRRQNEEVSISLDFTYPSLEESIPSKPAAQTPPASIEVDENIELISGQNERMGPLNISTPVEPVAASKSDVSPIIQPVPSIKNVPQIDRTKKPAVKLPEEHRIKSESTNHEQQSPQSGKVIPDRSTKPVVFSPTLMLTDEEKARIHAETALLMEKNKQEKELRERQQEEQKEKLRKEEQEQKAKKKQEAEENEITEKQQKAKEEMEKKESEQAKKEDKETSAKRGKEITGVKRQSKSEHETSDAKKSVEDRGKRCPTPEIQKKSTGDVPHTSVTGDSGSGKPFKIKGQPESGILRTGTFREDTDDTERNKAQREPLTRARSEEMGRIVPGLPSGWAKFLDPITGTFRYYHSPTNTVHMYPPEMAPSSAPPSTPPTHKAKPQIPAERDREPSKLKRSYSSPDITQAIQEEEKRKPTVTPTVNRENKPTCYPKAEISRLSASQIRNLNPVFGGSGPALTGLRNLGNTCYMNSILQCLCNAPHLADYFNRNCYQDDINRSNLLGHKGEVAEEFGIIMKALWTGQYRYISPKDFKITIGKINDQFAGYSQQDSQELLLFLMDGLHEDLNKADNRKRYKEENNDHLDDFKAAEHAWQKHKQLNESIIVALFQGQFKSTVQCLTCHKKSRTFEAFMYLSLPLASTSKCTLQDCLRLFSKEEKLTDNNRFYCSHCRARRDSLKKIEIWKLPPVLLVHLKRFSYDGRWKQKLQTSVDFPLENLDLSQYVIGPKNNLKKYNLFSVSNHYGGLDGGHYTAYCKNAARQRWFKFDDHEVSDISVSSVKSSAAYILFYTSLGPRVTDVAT
Put plainly: Inhibition of USP8 by Ub-CHOP reporter assay. For orientation: A reporter such as luciferase makes a cellular process visible.

Turning to `CS(=O)(=O)c1ccc(NC(=O)c2cc(C#N)c(Sc3c(Cl)cncc3Cl)s2)cc1`, the inhibition entry in assay [1] and in assay [2] was “inactive” in each case.
